The source of these data is patent publication US20240226211A9, “SEAWEED EXTRACTS, ISOLATED COMPOUNDS, AND METHODS OF TREATMENT” (University of Florida Research Foundation, Incorporated, priority 2017, published 2024).

The test system of test [1] is NQO1. As to the kind of experiment: Immunoblot of NQO1 after NAC pre-treatment in IMR-32 cells. The conditions noted are these: pre-treated with N-acetylcysteine. In kind it is cell-based, human. The method, then:
IMR-32 cells were seeded into 6-well plates (7×10^5 cells/well) and incubated at 37° C. for 24 h. The cells were then treated with a solvent control (DMSO, 1%, v/v), isolated compounds, or extracts. After 24 h, cells were lysed in 200 μL of PhosphoSafe buffer (Novagen). Protein concentrations were measured by using a BCA assay kit (Pierce). Equal amounts of total protein were separated using SDS-PAGE (NuPAGE® Novex® 4-12% Bis-Tris Mini gels, Invitrogen) and transferred onto a PVDF membrane. Membranes were blocked overnight with 5% BSA at 4° C. and incubated with indicated primary antibodies for 2 h at room temperature. After washing, the membranes were then incubated with the corresponding secondary antibodies (HRP-linked) for 1 h at room temperature and detected with Supersignal Femto Western Blotting kit (Pierce). For assays in the presence of N-acetylcysteine (NAC), the cells were pretreated with the antioxidant (NAC at 1 mM) for 2 h prior to treatment with the solvent control, isolated compounds, or extracts.
A general note: A western blot detects proteins with antibodies after separation by electrophoresis.

The subject of test [2] is Nqo1. As to the kind of experiment: Nqo1 transcript levels in mouse organs after oral gavage. The test is classed as in vivo. The conditions noted are these: mice, particularly digestive tract. The method, then: The RNeasy Mini Kit (Qiagen) was used to collect total RNA from cells, while for mouse tissue, TRIzol reagent (Invitrogen) was used. In each case, total RNAs (2 μg) were reverse-transcribed into cDNAs, which were used as templates for TaqMan gene expression assay (Applied Biosystems) and detected using the 7300 Real-Time PCR System (Applied Biosystems). Each qPCR sample was tested in triplicate as a 25 μL total reaction volume (12.5 μL of Taqman 2× universal master mix, 1.25 μL of a 20× TaqMan gene expression assay probe, 1 μL of the above cDNA, and 10.25 μL of RNase-free sterile water). The qPCR method was designed as following: 50° C. for 2 min, 95° C. for 10 min, and 40 cycles of 95° C. for 15 s and 60° C. for 1 min. Endogenous controls used included GAPDH for IMR-32 cells and β-actin to normalize for RAW264.7 cells and mouse tissues.
The experiments were approved by the Institutional Animal Care & Use Committee at the University of Florida. Groups of 5-10 wild type male mice (C57BL/6J) were used for each treatment type. The mice were maintained under approved standard conditions. […] The tissues were harvested immediately, frozen on dry ice, and kept at −80° C. until analyzed.
A low dose and a high dose of cymopol (1) or the NP extract were administered to 4-week-old male mice via oral gavage.

The test system of test [3] is PGE2 production in RAW264.7 cells. The experiment in a line: PGE2 assay in RAW264.7 cells. In kind it is cell-based, mouse. The conditions noted are these: RAW264.7, IFN-γ. The method, then:
RAW264.7 cells were seeded into a 96 well format at 4×10^4 cells/well and incubated overnight at 37° C. Cells were treated with a solvent control (DMSO, 1%, v/v) or serial dilutions of isolated compounds or extracts for 1 h before the addition of IFN-γ (10 ng/mL). […] The experiment was performed using the standard manufacturer's protocol.

The subject of test [4] is large intestine transcriptome. The experiment in a line: RNAseq of mouse large intestine. The test is classed as in vivo.
Text: Briefly, 1st strand cDNA is primed by a modified N6 primer (the SMART N6 CDS primer), then base-pairs with these additional nucleotides, creating an extended template. The reverse transcriptase then switches templates and continues transcribing to the end of the oligonucleotide, resulting single-stranded cDNA contains sequences that are complementary to the SMARTer oligonucleotide. The SMARTer anchor sequence and the N6 sequence serve as universal priming sites for DNA amplification by PCR for 10 cycles. […] Libraries were quantitated by Bioanalyzer and qPCR (Kapa Biosystems, catalog number: KK4824). Finally, the libraries were pooled equal molar concentration and sequenced by Illumina 2X75 NextSeq 500.
In preparation for sequencing, barcoded libraries were sized on the bioanalyzer, quantitated by QUBIT and qPCR (Kapa Biosystems, catalog number: KK4824). Individual samples were pooled equimolarly at 4 nM. […] For RNA seq, 50-100 million reads provided sufficient depth for transcriptome analysis.
The web-based analysis tool, IPA, was used to further investigate the effect of the cymopols on the large intestine.
The subject of test [5] is ARE-luciferase reporter (human NQO1-ARE) in IMR-32 cells. The experiment in a line: ARE-luc reporter assay in IMR-32 cells. The test is classed as cell-based. Conditions: IMR-32 cell line. An excerpt: The ARE-luciferase reporter construct (ARE-luc) contains the core sequence of human NQO1-ARE1. The mock plasmid (pcDNA3-mRFP) was purchased from Addgene (plasmid 13032). The following plasmids were reported by Zhang et a/.2003 [Zhang, D. D., and Hannink, M. (2003) Distinct cysteine residues in Keap1 are required for Keap1-dependent ubiquitination of Nrf2 and for stabilization of Nrf2 by chemopreventive agents and oxidative stress. Mol. Cell. Biol. 23, 8137-8151]. The Keap1-CBD plasmid carries the entire open reading frame (ORF) of human Keap1 fused to the chitin binding domain (CBD) of the Bacillus circulans chitinase A1 gene upstream of the Keap1 stop codon. Oligonucleotide-directed mutagenesis was used to generate the Keap1-C151S-CBD and Keap1-C288S-CBD plasmids. The HA-Cul3 plasmid was constructed by fusing an N-terminal hemagglutinin (HA) tag with a cDNA sequence coding for amino acids 1-380 of human Cul3 gene. The Gal4-Neh2 expression vector contains the codons for the first 97 amino acids (Neh2 domain) of human Nrf2 fused to the ORF of the Gal4 DNA-binding domain
An ARE-luciferase reporter plasmid and CMV-GFP plasmid (to monitor transfection efficiency) were co-transfected into a human androgen-sensitive prostate cancer cell line, LNCaP (6×10^4 cells/well), and a human neuroblastoma cell line, IMR-32 (3×10^4 cells/well), using Fugene® HD (Roche Diagnostics) in 96-well format. […] J Biol Chem. 2002; 277:388-394; Lee J M, Hanson J M, Chu W A, Johnson J A. Phosphatidylinositol 3-kinase, not extracellular signal-regulated kinase, regulates activation of the antioxidant-responsive element in IMR-32 human neuroblastoma cells. […] After 24 hours of incubation, cells were treated with extracts from Cymopolia barbata, a negative control (DMSO, 1%, v/v), and a positive control ([…] sulforaphane, SF, and tert-butylhydroquinone, tBHQ, respectively.) 24 hours post-treatment, luciferase activity was detected using BriteLite detection reagent (PerkinElmer). […]

The subject of another test is Bacillus cereus. The experiment in a line: Preliminary antibacterial testing. The test is classed as cell-based.
The test system of the next test is Staphylococcus aureus. As to the kind of experiment: Preliminary antibacterial testing. In kind it is cell-based.
The test system of test [6] is ARE-luciferase reporter (human NQO1-ARE) in LNCaP cells. The experiment in a line: ARE-luc reporter assay in LNCaP cells. In kind it is cell-based. The conditions noted are these: LNCaP cell line. From the text: The ARE-luciferase reporter construct (ARE-luc) contains the core sequence of human NQO1-ARE1. The mock plasmid (pcDNA3-mRFP) was purchased from Addgene (plasmid 13032). The following plasmids were reported by Zhang et a/.2003 [Zhang, D. D., and Hannink, M. (2003) Distinct cysteine residues in Keap1 are required for Keap1-dependent ubiquitination of Nrf2 and for stabilization of Nrf2 by chemopreventive agents and oxidative stress. Mol. Cell. Biol. 23, 8137-8151]. The Keap1-CBD plasmid carries the entire open reading frame (ORF) of human Keap1 fused to the chitin binding domain (CBD) of the Bacillus circulans chitinase A1 gene upstream of the Keap1 stop codon. […]
An ARE-luciferase reporter plasmid and CMV-GFP plasmid (to monitor transfection efficiency) were co-transfected into a human androgen-sensitive prostate cancer cell line, LNCaP (6×10^4 cells/well), and a human neuroblastoma cell line, IMR-32 (3×10^4 cells/well), using Fugene® HD (Roche Diagnostics) in 96-well format. […] After 24 hours of incubation, cells were treated with extracts from Cymopolia barbata, a negative control (DMSO, 1%, v/v), and a positive control ([…] sulforaphane, SF, and tert-butylhydroquinone, tBHQ, respectively.) 24 hours post-treatment, luciferase activity was detected using BriteLite detection reagent (PerkinElmer). […]
(In a reporter assay the amount or activity of a reporter protein is the signal.)

SMILES strings stand for the structures.

As to `CC(C)=CCC/C(C)=C/Cc1cc(O)c(Br)cc1O` [Compound 1, (E)-2-bromo-5-(3,7-dimethylocta-2,6-dien-1-yl)benzene-1,4-diol], the “translation of NQO1 after NAC pre-treatment” value in the test with NQO1 [1] is “still able to induce the translation of NQO1”. Also, in the test on Nqo1 [2], the “transcript levels of Nqo1 in various organs” value was “elevated transcript levels of Nqo1”. The “production of pro-inflammatory PGE2” value in test [3] is recorded as “effectively reduced the production”. For the same compound, in test [4] (large intestine RNAseq, IPA), the PI3K/Akt/mTOR pathway result is recorded as “greatly affected”. The “Wnt/β-catenin or Sonic Hedgehog signalling” value in test [4] (large intestine RNAseq, IPA) is recorded as “no notable difference”. In addition, the “transcript levels of TNFα” value in test [4] (large intestine, low dose) is on record as “down-regulated”. For the same compound, the “activation of ARE-luc” value in test [5] and in test [6] was “most active” in each case. Moreover, the antibacterial activity result in the test with Bacillus cereus and in the test on Staphylococcus aureus was “inhibited” each time.
